In ChEMBL document CHEMBL1201862, “PubChem BioAssay data set” (2004):
Calls of active or inactive are those of the source.

Columns and labels:
[1] = target: T1, RNA-binding protein pos-1 (Caenorhabditis elegans, UniProt G5EF15); experiment: inhibitors of POS-1/mex-3 RNA binding, dose response, biochemical, fluorescence polarization (AID 1964);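 note: purified POS-1 fused to maltose binding protein made in E. coli; potency of compounds blocking POS-1 binding to fluorescent RNA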
T1 sequence (G5EF15 whole entry): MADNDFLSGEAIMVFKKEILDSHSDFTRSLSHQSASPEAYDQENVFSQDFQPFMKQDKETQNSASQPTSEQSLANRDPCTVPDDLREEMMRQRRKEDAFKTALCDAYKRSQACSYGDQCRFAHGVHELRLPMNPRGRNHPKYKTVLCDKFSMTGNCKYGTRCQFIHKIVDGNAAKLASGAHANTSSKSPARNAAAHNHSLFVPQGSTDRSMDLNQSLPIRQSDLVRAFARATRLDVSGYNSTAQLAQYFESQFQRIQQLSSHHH

[2] = target: T2, Bcl-2-like protein 10 (Homo sapiens, UniProt Q9HD36); experiment: displacers of TR3 peptide from Bcl-B, primary screen, selectivity assay for Bfl-1 inhibitor project, biochemical, fluorescence polarization, FITC-TR3 peptide (AID 748);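 note: fluorescence polarization from a fluorescein-labelled TR3 peptide binding purified Bcl-B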
T2 sequence (Q9HD36 whole entry): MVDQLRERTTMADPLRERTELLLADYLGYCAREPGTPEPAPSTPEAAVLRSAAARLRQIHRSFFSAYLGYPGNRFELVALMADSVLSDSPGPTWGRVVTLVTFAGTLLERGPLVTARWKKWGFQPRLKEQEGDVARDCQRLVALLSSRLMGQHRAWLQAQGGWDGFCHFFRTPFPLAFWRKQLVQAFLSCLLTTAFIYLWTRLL

[3] = target: T3, Zinc finger protein mex-5 (Caenorhabditis elegans, UniProt Q9XUB2); experiment: MEX-5/TCR-2 RNA interaction inhibitors, dose response, biochemical, C. elegans, fluorescence polarization (AID 1960)
T3 sequence (Q9XUB2 whole entry): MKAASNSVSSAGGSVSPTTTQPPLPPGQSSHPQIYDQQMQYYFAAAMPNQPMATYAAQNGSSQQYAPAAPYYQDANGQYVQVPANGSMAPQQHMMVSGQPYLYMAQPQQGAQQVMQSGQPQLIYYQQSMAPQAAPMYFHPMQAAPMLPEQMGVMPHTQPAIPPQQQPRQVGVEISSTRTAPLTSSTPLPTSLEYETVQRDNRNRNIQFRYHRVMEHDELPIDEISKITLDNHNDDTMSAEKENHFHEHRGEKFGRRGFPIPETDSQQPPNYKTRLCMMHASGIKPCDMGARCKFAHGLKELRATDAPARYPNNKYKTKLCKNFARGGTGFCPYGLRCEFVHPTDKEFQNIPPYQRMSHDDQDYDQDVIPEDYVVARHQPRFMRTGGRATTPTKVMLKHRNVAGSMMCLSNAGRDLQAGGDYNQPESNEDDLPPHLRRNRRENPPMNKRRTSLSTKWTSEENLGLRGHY

[4] = target: T4, Estrogen receptor beta (Homo sapiens, UniProt Q92731); experiment: ERβ–SRC-3 coactivator interaction inhibitors, confirmation, orthogonal assay, biochemical, ELISA, streptavidin-HRP readout (AID 1060)
[5] = target: Bifunctional protein GlmU (Mycobacterium tuberculosis, UniProt P9WMN3); experiment: Inhibitors of Mycobacterial Glucosamine-1-phosphate acetyl transferase (GlmU). Secondary screen.; design: species or system Mycobacterium tuberculosis H37Rv
[6] = target: T5, Dual specificity protein phosphatase 6 (Rattus norvegicus, UniProt Q64346); experiment: MKP-3 phosphatase inhibitors, primary screen, biochemical, rat enzyme, in vitro (AID 425)
T5 sequence (Q64346 whole entry): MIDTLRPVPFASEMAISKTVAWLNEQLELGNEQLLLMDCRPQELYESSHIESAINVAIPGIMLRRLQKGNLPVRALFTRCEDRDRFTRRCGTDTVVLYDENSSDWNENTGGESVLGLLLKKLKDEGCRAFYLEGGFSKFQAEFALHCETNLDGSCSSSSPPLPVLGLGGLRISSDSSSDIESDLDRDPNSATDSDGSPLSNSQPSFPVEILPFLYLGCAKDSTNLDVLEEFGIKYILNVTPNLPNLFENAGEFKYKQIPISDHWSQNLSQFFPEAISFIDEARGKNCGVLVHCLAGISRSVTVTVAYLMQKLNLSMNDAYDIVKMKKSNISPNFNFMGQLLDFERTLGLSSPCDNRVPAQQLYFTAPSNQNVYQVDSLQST

[7] = target: T6, Carboxy-terminal domain RNA polymerase II polypeptide A small phosphatase 1 (Homo sapiens, UniProt Q9GZU7); experiment: inhibitors of CTDSP1, concentration-response testing, biochemical assay, absorbance-based, actives from ultra-high-throughput screening (AID 540297); type: functional
T6 sequence (Q9GZU7 whole entry): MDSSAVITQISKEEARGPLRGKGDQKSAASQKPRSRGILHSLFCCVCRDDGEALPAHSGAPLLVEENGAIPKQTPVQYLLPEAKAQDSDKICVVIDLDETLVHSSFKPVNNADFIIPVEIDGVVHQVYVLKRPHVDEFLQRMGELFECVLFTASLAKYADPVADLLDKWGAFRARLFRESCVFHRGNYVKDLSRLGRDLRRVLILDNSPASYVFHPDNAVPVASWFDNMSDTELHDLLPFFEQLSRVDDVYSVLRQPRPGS

[8] = target: T7, Histone-lysine N-methyltransferase NSD2 (Homo sapiens, UniProt O96028); type: biochemical
T7 sequence (O96028 whole entry): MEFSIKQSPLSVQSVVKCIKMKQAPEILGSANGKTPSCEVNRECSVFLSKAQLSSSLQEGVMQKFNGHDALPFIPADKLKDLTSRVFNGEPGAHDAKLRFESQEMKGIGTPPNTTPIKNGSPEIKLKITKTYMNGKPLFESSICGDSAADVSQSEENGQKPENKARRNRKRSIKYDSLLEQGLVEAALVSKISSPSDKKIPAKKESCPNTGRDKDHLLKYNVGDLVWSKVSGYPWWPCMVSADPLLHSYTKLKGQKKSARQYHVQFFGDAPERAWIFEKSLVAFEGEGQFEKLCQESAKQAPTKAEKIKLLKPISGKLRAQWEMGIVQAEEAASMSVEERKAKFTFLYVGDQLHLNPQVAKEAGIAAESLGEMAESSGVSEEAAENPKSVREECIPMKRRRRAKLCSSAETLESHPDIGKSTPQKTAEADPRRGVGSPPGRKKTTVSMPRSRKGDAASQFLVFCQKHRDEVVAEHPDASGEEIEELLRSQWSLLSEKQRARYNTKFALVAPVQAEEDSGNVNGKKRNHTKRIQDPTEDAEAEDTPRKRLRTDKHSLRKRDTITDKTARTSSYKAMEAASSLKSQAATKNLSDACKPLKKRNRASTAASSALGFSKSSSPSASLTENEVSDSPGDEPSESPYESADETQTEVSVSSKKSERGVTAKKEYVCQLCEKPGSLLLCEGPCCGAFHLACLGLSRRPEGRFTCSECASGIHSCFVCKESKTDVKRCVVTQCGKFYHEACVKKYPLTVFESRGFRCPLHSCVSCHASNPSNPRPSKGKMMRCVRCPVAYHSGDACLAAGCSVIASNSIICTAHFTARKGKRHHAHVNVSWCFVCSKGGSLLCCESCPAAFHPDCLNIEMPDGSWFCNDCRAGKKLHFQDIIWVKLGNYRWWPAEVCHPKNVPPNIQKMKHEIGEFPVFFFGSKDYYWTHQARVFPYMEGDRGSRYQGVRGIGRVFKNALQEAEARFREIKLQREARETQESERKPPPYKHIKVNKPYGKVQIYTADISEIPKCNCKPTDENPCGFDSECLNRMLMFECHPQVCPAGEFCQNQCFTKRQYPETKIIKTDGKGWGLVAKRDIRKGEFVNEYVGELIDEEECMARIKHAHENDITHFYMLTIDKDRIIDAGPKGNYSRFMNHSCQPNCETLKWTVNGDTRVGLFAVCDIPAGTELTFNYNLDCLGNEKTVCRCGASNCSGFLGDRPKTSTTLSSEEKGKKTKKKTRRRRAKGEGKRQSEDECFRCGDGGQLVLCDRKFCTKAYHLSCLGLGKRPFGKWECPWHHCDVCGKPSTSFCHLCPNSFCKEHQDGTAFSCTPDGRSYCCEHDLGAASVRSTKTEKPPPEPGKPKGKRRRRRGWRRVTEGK

[9] = target: T4, Estrogen receptor beta
[10] = target: DNA dC->dU-editing enzyme APOBEC-3A (Homo sapiens, UniProt P31941); experiment: Dose Response confirmation of small molecule APOBEC3A DNA Deaminase Inhibitors via a fluorescence-based single-stranded DNA deaminase assay. [Related pubchem assays (depositor defined):AID493011, AID493024]; type: functional
[11] = target: DNA dC->dU-editing enzyme APOBEC-3G (Homo sapiens, UniProt Q9HC16); type: functional;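 note: Dose-response counterscreen measuring inhibition of APOBEC3G DNA deaminase activity, run while confirming APOBEC3A inhibitors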
[12] = target: E3 ubiquitin-protein ligase Mdm2 (Homo sapiens, UniProt Q00987); experiment: enhancers of MDM2-luciferase reporter signal, concentration-effect titration, project on inhibitors of MDM2 ubiquitin ligase, cellular assay, luminescent readout, 384-well plate format (AID 1394); type: functional;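 note: MDM2 E3 inhibitors raise luminescence so EC50 is for signal enhancement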
Chain of E3 ubiquitin-protein ligase Mdm2 (Q00987 whole entry): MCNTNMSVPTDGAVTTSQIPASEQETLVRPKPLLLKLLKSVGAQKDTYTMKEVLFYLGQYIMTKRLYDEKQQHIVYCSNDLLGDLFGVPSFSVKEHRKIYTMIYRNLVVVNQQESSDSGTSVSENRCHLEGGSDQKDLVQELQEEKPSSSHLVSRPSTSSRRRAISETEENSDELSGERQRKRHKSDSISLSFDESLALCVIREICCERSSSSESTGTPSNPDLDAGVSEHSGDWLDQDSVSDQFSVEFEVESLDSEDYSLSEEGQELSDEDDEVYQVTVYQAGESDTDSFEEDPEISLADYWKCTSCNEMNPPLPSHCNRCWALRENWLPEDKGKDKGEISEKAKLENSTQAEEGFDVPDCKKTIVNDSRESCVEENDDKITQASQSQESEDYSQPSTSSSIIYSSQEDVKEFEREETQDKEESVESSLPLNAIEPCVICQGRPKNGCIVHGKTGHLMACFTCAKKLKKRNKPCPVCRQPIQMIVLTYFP

T4 sequence (Q92731 whole entry): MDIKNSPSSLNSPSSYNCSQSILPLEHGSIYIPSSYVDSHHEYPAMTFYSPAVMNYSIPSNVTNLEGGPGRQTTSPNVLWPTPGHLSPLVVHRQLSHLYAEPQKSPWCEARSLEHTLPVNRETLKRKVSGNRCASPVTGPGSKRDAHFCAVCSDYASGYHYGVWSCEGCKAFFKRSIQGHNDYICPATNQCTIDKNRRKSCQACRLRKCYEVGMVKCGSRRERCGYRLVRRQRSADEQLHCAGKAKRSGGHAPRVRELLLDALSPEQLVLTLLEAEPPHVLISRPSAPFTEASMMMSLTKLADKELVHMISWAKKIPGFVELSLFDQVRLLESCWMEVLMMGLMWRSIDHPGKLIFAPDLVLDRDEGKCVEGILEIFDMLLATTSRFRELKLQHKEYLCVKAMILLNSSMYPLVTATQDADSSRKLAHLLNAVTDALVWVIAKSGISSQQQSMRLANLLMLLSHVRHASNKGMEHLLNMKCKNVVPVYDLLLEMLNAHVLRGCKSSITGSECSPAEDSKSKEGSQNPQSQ
Chain of DNA dC->dU-editing enzyme APOBEC-3A (P31941 whole entry): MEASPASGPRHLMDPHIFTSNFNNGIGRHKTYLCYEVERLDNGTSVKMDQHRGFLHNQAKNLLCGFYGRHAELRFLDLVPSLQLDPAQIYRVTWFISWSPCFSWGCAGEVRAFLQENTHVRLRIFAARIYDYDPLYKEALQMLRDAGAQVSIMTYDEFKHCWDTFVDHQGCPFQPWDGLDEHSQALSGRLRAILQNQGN
Chain of DNA dC->dU-editing enzyme APOBEC-3G (Q9HC16 whole entry): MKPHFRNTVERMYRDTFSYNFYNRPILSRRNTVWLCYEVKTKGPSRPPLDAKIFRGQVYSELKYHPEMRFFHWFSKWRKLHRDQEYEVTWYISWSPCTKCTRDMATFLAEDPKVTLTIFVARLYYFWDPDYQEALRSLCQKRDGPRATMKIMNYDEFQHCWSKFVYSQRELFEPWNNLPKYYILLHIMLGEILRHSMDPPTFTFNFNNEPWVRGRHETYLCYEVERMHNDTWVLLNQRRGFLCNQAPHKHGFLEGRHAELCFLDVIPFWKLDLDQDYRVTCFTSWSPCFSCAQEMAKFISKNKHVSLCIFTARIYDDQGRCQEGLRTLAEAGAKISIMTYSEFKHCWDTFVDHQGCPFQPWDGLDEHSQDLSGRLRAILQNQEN
Chain of Bifunctional protein GlmU (P9WMN3 whole entry): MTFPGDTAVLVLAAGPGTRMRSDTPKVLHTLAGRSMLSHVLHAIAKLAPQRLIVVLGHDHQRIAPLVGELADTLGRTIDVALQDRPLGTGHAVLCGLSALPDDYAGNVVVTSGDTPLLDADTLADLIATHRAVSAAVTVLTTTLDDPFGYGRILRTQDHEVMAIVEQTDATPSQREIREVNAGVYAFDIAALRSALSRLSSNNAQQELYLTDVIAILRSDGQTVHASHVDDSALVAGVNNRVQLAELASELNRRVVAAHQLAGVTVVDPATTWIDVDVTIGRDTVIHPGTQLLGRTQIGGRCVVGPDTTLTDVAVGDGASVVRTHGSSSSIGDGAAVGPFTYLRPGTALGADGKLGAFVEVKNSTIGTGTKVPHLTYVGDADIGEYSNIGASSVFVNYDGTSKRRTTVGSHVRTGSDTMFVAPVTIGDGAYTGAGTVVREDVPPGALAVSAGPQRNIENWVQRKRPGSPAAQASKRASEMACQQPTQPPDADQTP

| SMILES | EC50 [1] | IC50 [2] | EC50 [3] | IC50 [4] | IC50 [5] | IC50 [6] | IC50 [7] | AC50 [8] | IC50 [9] | IC50 [10] | IC50 [11] | EC50 [12] |
| --- | --- | --- | --- | --- | --- | --- | --- | --- | --- | --- | --- | --- |
| O=C(O)c1cccc(-n2cccc2/C=N/O)c1 | > 300 µM (not active) | 18.3 µM (active) | > 300 µM (not active) | < 0.023 µM (not active) | 91.6 µM (active) | > 10 µM (not active) | 3.09 µM (active) | 12.2 µM (active) | – | – | – | – |
| O=C(Cc1cccs1)Nc1nnc(Cc2ccccc2)s1 | – | – | – | 14.4 µM (not active) | – | – | – | – | 1.7 µM (active) | 12 µM (active) | 25.3 µM (active) | – |
| Cc1ccc(NC(=O)CCC2CC(C)(C)OC2=O)cc1 (stereo not drawn) | – | – | – | – | – | – | – | – | – | – | – | 777 µM (not active) |
